Results taken from patent publication US4569791A, “Anti-diabetic compounds” (Eli Lilly and Company, priority 1984, dated 1986).

Columns and labels:
isolated rat adipocytes = experiment: Biological Activity in Isolated Rat Adipocytes (incorporation of 2-3H-glucose in total fat cell lipid); format: cell-based; details: for Relative Potency: biological activity in rat adipocytes, human proinsulin = 1; for ED50: rat adipocytes, 2-3H-glucose incorporation into lipid, 37° for 1 hr, mean ±SEM
Method: C. Biological Activity in Isolated Rat Adipocytes
Adipocytes were prepared from epididymal fat pads by a modification (Huber, supra) of the collagenase digestion procedure of Rodbell, supra. Krebs-Ringer-HEPES (KRH) buffer, pH 7.4, containing 4% bovine serum albumin and 0.55 mM glucose was used in all isolation and incubation steps.
Biological activity was assessed according to the method of Moody, A. J., Stan, M. A., Stan, M., and Glieman, J., Horm. Metab. Res. 6, 12-16 (1974) by monitoring the incorporation of 2-^3 H-glucose in total fat cell lipid. […] Radioactivity was determined in a Searle Isocap 300 liquid scintillation counter at an efficiency of approximately 30%. Blanks were prepared in which the scintillation fluid was added to the vials prior to the addition of cells. The average counts obtained from these vials were subtracted from those observed in all other samples.
Competitive binding curves and biological activity dose-response curves were analyzed using the PREFIT and ALLFIT programs [DeLean, A., Munson, P. J., and Rodbard, D., Am. J. Physiol. 235, E97-E102 (1978)] based on a four-parameter logistic model. These analyses indicated the concentration of insulin or proinsulin necessary to produce a half-maximal response, as well as the maximal and minimal values. All values are presented as the mean ±SEM.

[1] = test system: insulin receptor on isolated fat cells; experiment: Isolated Fat Cell Radioreceptor Assay (displacement of 125I-labeled insulin); format: binding; details: for Relative Potency: isolated fat cell radioreceptor assay, human proinsulin = 1; for ED50: isolated fat cells, 125I-labeled insulin 1-2×10^-11 M, 15° C., two hours
Method: B. Isolated Fat Cell Radioreceptor Assay
Isolated fat cells were prepared by a modification [Huber, C. T., Solomon, S. S., and Duckworth, W. C., J. Clin. Invest. […] All incubations were in Krebs-Ringer-Hepes (KRH) buffer, pH 7.4, with 4% bovine serum albumin (BSA) in a total volume of 2 ml. […] At selected times, triplicate 300 μl aliquots were removed and added to microfuge tubes containing 100 μl dinonyl phthalate [see Gliemann, J., Osterlind, K., Vinten, J., and Gammeltoft, S., Biochem. Biophys. Acta. […] After centrifugation for one minute in a microfuge, the tubes were cut through the oil layer, and the cell pellet was counted using a gamma counter to determine binding.

[2] = test system: insulin receptor on IM-9 cells; experiment: IM-9 Radioreceptor Assay (displacement of 125I-insulin); format: binding, human; details: for ED50: IM-9 cells, 125I-insulin 1-2×10^-11 M, 15° C., two hours; for Relative Potency: IM-9 radioreceptor assay, human proinsulin = 1
Method: A. IM-9 Radioreceptor Assay
IM-9 cells were grown in RPMI media containing 2 mM glutamine, 25 mM HEPES, and 10% fetal bovine serum. […] Incubations were carried out in 1.5 ml microfuge tubes at 15° C. for two hours. Concentrations of stock solutions containing insulin, proinsulin, or compound of this invention used in the binding studies were established by amino acid analysis and by their absorbance at 276 nm. The cells were resuspended during the assay every 30 minutes by inverting the tubes several times. At the end of the incubation, the tubes were centrifuged for one minute in a Beckman Microfuge, the supernant was aspirated, the tips of the tubes containing the cell pellet were excised, and the radioactivity was measured.

Substance: (32-33 split)HPI [(32-33 split) HPI]
- Relative Potency (isolated rat adipocytes): 5
- ED50 (isolated rat adipocytes): 2.56 ± 0.2 × 10^-9 M
- Relative Potency [1]: 5
- ED50 [1]: 5.29 ± 1.8 × 10^-8 M
- ED50 [2]: 5.92 ± 0.7 × 10^-9 M
- Relative Potency [2]: 5

Substance: Human Insulin [reference compound]
- ED50 (isolated rat adipocytes): 5.32 ± 0.7 × 10^-11 M

Substance: Human Proinsulin [reference compound]
- Relative Potency (isolated rat adipocytes): 1
- ED50 (isolated rat adipocytes): 1.24 ± 0.2 × 10^-8 M
- Relative Potency [1]: 1
- ED50 [1]: 2.55 ± 0.6 × 10^-7 M
- ED50 [2]: 2.97 ± 0.2 × 10^-8 M
- Relative Potency [2]: 1

Substance: des(31,32)HPI [des (31,32) HPI]
- Relative Potency (isolated rat adipocytes): 5
- ED50 (isolated rat adipocytes): 2.68 ± 0.5 × 10^-9 M
- Relative Potency [1]: 9
- ED50 [1]: 2.85 ± 0.1 × 10^-8 M
- ED50 [2]: 5.60 ± 0.3 × 10^-9 M
- Relative Potency [2]: 5
